{
  "source": "PubChem BioAssay AID1259407",
  "about": "(Chemical Carcinogenesis Research Information System (CCRIS), 2018)",
  "system": "CCRIS mutagenicity, Ames/micronucleus/aberration tests",
  "assay": "CCRIS mutagenicity studies",
  "key": {"[1]": {"conditions": "Test System: AMES SALMONELLA TYPHIMURIUM, Strain/Indicator: TA98, Metabolic Activation: NONE, Method: STANDARD PLATE"}, "[2]": {"conditions": "Test System: AMES SALMONELLA TYPHIMURIUM, Strain/Indicator: TA98, Metabolic Activation: RAT, LIVER, S-9, AROCLOR 1254, Method: STANDARD PLATE"}, "[3]": {"conditions": "Test System: AMES SALMONELLA TYPHIMURIUM, Strain/Indicator: TA1538, Metabolic Activation: NONE, Method: STANDARD PLATE"}, "[4]": {"conditions": "Test System: AMES SALMONELLA TYPHIMURIUM, Strain/Indicator: TA1538, Metabolic Activation: RAT, LIVER, S-9, AROCLOR 1254, Method: STANDARD PLATE"}},
  "note": "Calls of active or inactive are those of the source. How the calls were made is not given here.",
  "data": [
    {"smiles": "CC(=O)N(O)c1ccc2c(c1)Cc1ccccc1-2", "values": [
      {"measurement": "mutagenic call", "setting": "Test System: AMES SALMONELLA TYPHIMURIUM, Strain/Indicator: TA98, Metabolic Activation: GUINEA PIG, LIVER, HEPATOCYTES", "result": "active; positive"},
      {"measurement": "mutagenic call", "setting": "Test System: AMES SALMONELLA TYPHIMURIUM, Strain/Indicator: TA98, Metabolic Activation: GUINEA PIG, LIVER, S-9, Method: STANDARD PLATE", "result": "active; positive"},
      {"measurement": "mutagenic call", "setting": "Test System: AMES SALMONELLA TYPHIMURIUM, Strain/Indicator: TA98, Metabolic Activation: HAMSTER, LIVER, HEPATOCYTES", "result": "active; positive"},
      {"measurement": "mutagenic call", "setting": "Test System: AMES SALMONELLA TYPHIMURIUM, Strain/Indicator: TA98, Metabolic Activation: HAMSTER, LIVER, S-9, Method: STANDARD PLATE", "result": "active; positive"},
      {"measurement": "mutagenic call", "setting": "Test System: AMES SALMONELLA TYPHIMURIUM, Strain/Indicator: TA98, Metabolic Activation: HUMAN, FETAL LIVER, S-9", "result": "active; positive"},
      {"measurement": "mutagenic call", "setting": "Test System: AMES SALMONELLA TYPHIMURIUM, Strain/Indicator: TA98, Metabolic Activation: MOUSE, LIVER, HEPATOCYTES", "result": "active; positive"},
      {"measurement": "mutagenic call", "setting": "Test System: AMES SALMONELLA TYPHIMURIUM, Strain/Indicator: TA98, Metabolic Activation: MOUSE, LIVER, S-9, Method: STANDARD PLATE", "result": "active; positive"},
      {"measurement": "mutagenic call", "setting": "[1]", "result": "active; positive"},
      {"measurement": "mutagenic call", "setting": "Test System: AMES SALMONELLA TYPHIMURIUM, Strain/Indicator: TA98, Metabolic Activation: RABBIT, LIVER, MICROSOMAL FRACTION, Method: STANDARD PLATE", "result": "active; positive"},
      {"measurement": "mutagenic call", "setting": "Test System: AMES SALMONELLA TYPHIMURIUM, Strain/Indicator: TA98, Metabolic Activation: RABBIT, LUNG, MICROSOMAL FRACTION, Method: STANDARD PLATE", "result": "active; positive"},
      {"measurement": "mutagenic call", "setting": "Test System: AMES SALMONELLA TYPHIMURIUM, Strain/Indicator: TA98, Metabolic Activation: RAT, LIVER, HEPATOCYTES", "result": "active; positive"},
      {"measurement": "mutagenic call", "setting": "[2]", "result": "active; positive"},
      {"measurement": "mutagenic call", "setting": "Test System: AMES SALMONELLA TYPHIMURIUM, Strain/Indicator: TA98, Metabolic Activation: RAT, LIVER, S-9, Method: STANDARD PLATE", "result": "active; positive"},
      {"measurement": "mutagenic call", "setting": "Test System: AMES SALMONELLA TYPHIMURIUM, Strain/Indicator: TA98, Metabolic Activation: V-79 CELL HOMOGENATE, Method: PREINCUBATION", "result": "active; positive"},
      {"measurement": "mutagenic call", "setting": "[3]", "result": "active; positive"},
      {"measurement": "mutagenic call", "setting": "[4]", "result": "active; positive"},
      {"measurement": "mutagenic call", "setting": "Test System: AMES SALMONELLA TYPHIMURIUM, Strain/Indicator: TA1538, Metabolic Activation: RAT, LIVER, S-9, KC500 OR PHENOBARBITAL, Method: LIQUID SUSPENSION", "result": "active; positive"},
      {"measurement": "mutagenic call", "setting": "Test System: AMES SALMONELLA TYPHIMURIUM, Strain/Indicator: YG1012, Metabolic Activation: NONE, Method: PREINCUBATION", "result": "active; positive"},
      {"measurement": "mutagenic call", "setting": "Test System: AMES SALMONELLA TYPHIMURIUM, Strain/Indicator: YG1019, Metabolic Activation: NONE, Method: PREINCUBATION", "result": "active; positive"},
      {"measurement": "mutagenic call", "setting": "Test System: AMES SALMONELLA TYPHIMURIUM, Strain/Indicator: YG1020, Metabolic Activation: NONE, Method: PREINCUBATION", "result": "active; positive"},
      {"measurement": "mutagenic call", "setting": "Test System: AMES SALMONELLA TYPHIMURIUM, Strain/Indicator: YG1024, Metabolic Activation: NONE, Method: PREINCUBATION", "result": "active; positive"},
      {"measurement": "mutagenic call", "setting": "Test System: CHINESE HAMSTER V-79, Strain/Indicator: V-79/6-THIOGUANINE, Metabolic Activation: NONE", "result": "active; positive"},
      {"measurement": "mutagenic call", "setting": "Test System: CHINESE HAMSTER V-79, Strain/Indicator: V-79/8-AZAGUANINE, Metabolic Activation: NONE, Method: STANDARD PLATE", "result": "active; positive"},
      {"measurement": "mutagenic call", "setting": "Test System: E. COLI, Strain/Indicator: WP2 UVRA, Metabolic Activation: NONE, Method: STANDARD PLATE", "result": "inactive; negative"},
      {"measurement": "mutagenic call", "setting": "Test System: UDS GUINEA PIG HEPATOCYTES, Strain/Indicator: THY INCORP, Metabolic Activation: NONE, Method: LIQUID SCINTILLATION COUNTING", "result": "active; positive"},
      {"measurement": "mutagenic call", "setting": "Test System: UDS HAMSTER HEPATOCYTES, Strain/Indicator: THY INCORP, Metabolic Activation: NONE, Method: LIQUID SCINTILLATION COUNTING", "result": "active; positive"},
      {"measurement": "mutagenic call", "setting": "Test System: UDS HUMAN CELLS, Strain/Indicator: THY INCORP (NON-S-PHASE), Metabolic Activation: RAT, LIVER, S-9, PHENOBARBITAL, Method: LIQUID SCINTILLATION COUNTING", "result": "active; positive"},
      {"measurement": "mutagenic call", "setting": "Test System: UDS HUMAN FIBROBLASTS, Strain/Indicator: THY INCORP (NON-S-PHASE), Metabolic Activation: NONE, Method: AUTORADIOGRAPHY", "result": "active; positive"},
      {"measurement": "mutagenic call", "setting": "Test System: UDS HUMAN FIBROBLASTS, Strain/Indicator: THY INCORP (NON-S-PHASE), Metabolic Activation: NONE, Method: LIQUID SCINTILLATION COUNTING", "result": "active; positive"},
      {"measurement": "mutagenic call", "setting": "Test System: UDS HUMAN LYMPHOCYTES, Strain/Indicator: THY INCORP (NON-S-PHASE), Metabolic Activation: NONE, Method: LIQUID SCINTILLATION COUNTING", "result": "active; positive"},
      {"measurement": "mutagenic call", "setting": "Test System: UDS MOUSE HEPATOCYTES, Strain/Indicator: THY INCORP, Metabolic Activation: NONE, Method: LIQUID SCINTILLATION COUNTING", "result": "active; positive"},
      {"measurement": "mutagenic call", "setting": "Test System: UDS RAT HEPATOCYTES, Strain/Indicator: THY INCORP, Metabolic Activation: NONE, Method: LIQUID SCINTILLATION COUNTING", "result": "active; positive"},
      {"measurement": "mutagenic call", "setting": "Test System: UDS RODENT HEPATOCYTES, Strain/Indicator: THY INCORP (NON-S-PHASE), Method: AUTORADIOGRAPHY", "result": "active; positive"},
      {"measurement": "mutagenic call", "setting": "Test System: UDS RODENT HEPATOCYTES, Strain/Indicator: THY INCORP (NON-S-PHASE), Method: LIQUID SCINTILLATION COUNTING", "result": "active; positive"}
    ]},
    {"smiles": "Nc1c(C(=O)O)cc([N+](=O)[O-])c2c1C(=O)c1ccccc1C2=O", "values": [
      {"measurement": "mutagenic call", "setting": "[1]", "result": "active; positive"},
      {"measurement": "mutagenic call", "setting": "[2]", "result": "active; positive"},
      {"measurement": "mutagenic call", "setting": "Test System: AMES SALMONELLA TYPHIMURIUM, Strain/Indicator: TA100, Metabolic Activation: NONE, Method: STANDARD PLATE", "result": "active; positive"},
      {"measurement": "mutagenic call", "setting": "Test System: AMES SALMONELLA TYPHIMURIUM, Strain/Indicator: TA100, Metabolic Activation: RAT, LIVER, S-9, AROCLOR 1254, Method: STANDARD PLATE", "result": "active; positive"},
      {"measurement": "mutagenic call", "setting": "Test System: AMES SALMONELLA TYPHIMURIUM, Strain/Indicator: TA1535, Metabolic Activation: NONE, Method: STANDARD PLATE", "result": "inactive; negative"},
      {"measurement": "mutagenic call", "setting": "Test System: AMES SALMONELLA TYPHIMURIUM, Strain/Indicator: TA1537, Metabolic Activation: NONE, Method: STANDARD PLATE", "result": "active; positive"},
      {"measurement": "mutagenic call", "setting": "Test System: AMES SALMONELLA TYPHIMURIUM, Strain/Indicator: TA1537, Metabolic Activation: RAT, LIVER, S-9, AROCLOR 1254, Method: STANDARD PLATE", "result": "active; positive"},
      {"measurement": "mutagenic call", "setting": "[3]", "result": "active; positive"},
      {"measurement": "mutagenic call", "setting": "[4]", "result": "active; positive"},
      {"measurement": "mutagenic call", "setting": "Test System: AMES SALMONELLA TYPHIMURIUM, Strain/Indicator: TA1978, Metabolic Activation: NONE, Method: STANDARD PLATE", "result": "active; positive"}
    ]}
  ]
}
